Structures can show the parent of a compound that is named as a salt.
Columns and labels:
Format in all cases: cell-based
Human sperm [1] = test: Percentage motility of human sperm, counted from video recordings in a Makler chamber
Method: Human sperm sample were obtained from 12 volunteers and patients attending the Newham Hospital assisted fertility clinic. Samples were suspended in modified minimum essential medium with Earle's salts (MEM) and glutamine and viewed in a Makler chamber using an Olympus inverted microscope fitted with an Olympus ARTF-2 video camera. Fields were recorded on video tape and percentage motility evaluated at 1 min and 5 min. After mixing with MEM alone (unstimulated controls) or with MEM containing 1 nmole/litre angiotensin II amide.
In practice, rigid use of this definition was rarely necessary as sperm were either completely immotile or progressed freely.
A series of six sperm samples, obtained from the same source as Example 1, were mixed either with unmodified MEM, or MEM containing DuP-753 (1 nmole/l).
Percentage motility was estimated in the same way as in Example 1.
(§1) Effect of Angiotensin II on Sperm Velocity Sperm samples were obtained from the same source as Example 1. One series of samples was kept as controls. To a second series Angiotensin II amide (10 nmole/l) was added. A third series was treated with monoclonal antibody to the AT1, receptor before angiotensin was added.
Sperm samples were obtained from the same source as Example 1. One series of samples was kept as controls. A second series was exposed to angiotensin II (1 μmole/l) for five minutes. A third series was exposed to angiotensin II (1 μmole/l) for 5 minutes and then DuP-753 (1 μmole/l) was added.
The percentage of motile sperm was measured using the same method as was used in Example 1.

Human sperm [2] = test: Forward progressive sperm velocity, timed manually across the Makler chamber grid; details: Angiotensin II amide (10 nmole/l); FIG. 3(a)
Method: as §1
Velocity was measured by timing forwardly progressive sperm traversing the grid on the Makler Chamber and timing them manually.

Human sperm [3] = test: Sperm motility by computer system (VCL and ALH); details: angiotensin II amide (1 nmole/l) versus unstimulated controls, over 30 minutes
Method: Sperm samples were obtained from the same source as Example 1. One series of samples was kept as controls. TO a second series angiotensin II amide (1 nmole/l) was added.
Sperm motility was assayed by using a computer system which measures different aspects of sperm motility, namely curvilinear velocity (VCL) and amplitude of lateral head displacement (ALH).

In the case of `CCCCc1nc(Cl)c(CO)n1Cc1ccc(-c2ccccc2-c2nn[nH]n2)cc1` [DuP-753, 2-n-butyl-4-chloro-5-hydroxymethyl-1-[(2'-(1H-tetrazol-5-yl)biphenyl-4-yl)methyl] imidazole, potassium salt, reference compound], the “percentage motility relative to the untreated controls” value (Human sperm [1]; MEM containing DuP-753 (1 nmole/l), six sperm samples, FIG. 2) is reported as “significantly decreased” and the “effect on the angiotensin II enhancement of the percentage of motile sperm” value (Human sperm [1]; angiotensin II (1 μmole/l) for 5 minutes, then DuP-753 (1 μmole/l) added, FIG. 4) is reported as “generally reduced”.
For “angiotensin II (DRVYIHPF; Angiotensin-2; UniProt P01019 25-32, looked up) [octapeptide hormone of the renin-angiotensin system]”, the “percentage motility after 5 minutes compared with percentage motility after 1 minute” value (Human sperm [1]; MEM containing 1 nmole/litre angiotensin II amide, 12 human sperm samples, FIG. 1(b)) was “significantly different”, the “percentage of sperm which were motile after 5 minutes compared with the controls” value (Human sperm [1]; angiotensin II (1 μmole/l) for five minutes, in most samples, FIG. 4) was “enhanced” and the “forward progressive velocity compared with the untreated controls” value (Human sperm [2]) was “significantly stimulated”.
For angiotensin II amide, the “curvilinear velocity (VCL)” value (Human sperm [3]; FIGS. 6 and 8) was “stimulates” and the “amplitude of lateral head displacement (ALH)” value (Human sperm [3]; FIGS. 7 and 8) was “stimulates”.

Source: patent US6011015A, “Angiotensin II for improving fertilization” (Queen Mary & Westfield College, priority 1994, dated 2000)
